This is an account of results in patent US7534809B2, “Phospho-indoles as HIV inhibitors” (priority 2004, dated 2009).

In brackets after ≈: the same amount, converted by molar mass. Like-named read-outs stand apart in the source and are kept apart here.

Data set [1] has as its target T1, CYP3A4 (Homo sapiens, UniProt P08684).
T1 construct: purchased BD Biosciences
Briefly: CYP450 inhibition, CYP3A4/BFC screening kit. The format is in vitro ADME. The source says:
(§1) In vitro CYP450 inhibition screening allows for the prediction of potential drug-drug interactions. […] Potency and rank order of the inhibition can be assessed by determination of the IC50 values for a particular isozyme.
(§2) CYP3A4 inhibition was screened using the CYP3A4/BFC high throughput inhibitor screening kit (BD Biosciences), CYP2D6 inhibition was screened using the CYP2D6/AMMC high throughput inhibitor screening kit (BD Biosciences), and CYP2C9 inhibition was screened using the P450-Glo™ Assay kit (Promega).

Data set [2] is described as follows: Metabolic stability in human liver microsomes. Conditions: 10 μM, 1 mg/mL microsomes, 37° C., 2 hrs. The format is in vitro ADME. From the text: (§3) The metabolic stability assay is to evaluate the stability of test compound in biological matrices. Data are useful in terms of understanding and predicting the elimination mechanisms of the test compound. CYP450-dependent metabolism of drugs can also vary widely from one species to another. Evaluating in vitro metabolism of a drug by liver microsomes from multiple species allows the comparison of metabolism in animal species to that of humans. This can help identify the most relevant animal model for PK and toxicology studies. The metabolic stability of a test compound was evaluated in vitro in liver microsomes of the rat, dog, monkey, and human. 10 μM of the test compound was pre-incubated for 5 min at 37° C. with 1 mg/mL liver microsomes in 0.1M Tris buffer, pH 7.4 containing 5 mM MgCl2 and 0.1 mM EDTA. Following pre-incubation, NADPH (final concentration of 3 mM) was added to start the reaction and samples incubated for 0 and 1 or 2 hours. After terminating the reaction, the supernatant was analyzed by HPLC-UV or LC/MS/MS for the disappearance of the parent and formation of metabolite(s). The %parent remaining was the peak area ratio of the 1 or 2 hr sample to the time 0 sample. In general, less metabolism (higher % parent values) is more desirable.
Background: Liver microsomes are a subcellular fraction often used to study metabolism.

Data set [3] in a line: Metabolic stability in monkey liver microsomes. The format is in vitro ADME. Conditions: 10 μM, 1 mg/mL microsomes, 37° C., 2 hrs.
Excerpt: as §3

Data set [4] in a line: Metabolic stability in rat liver microsomes. The format is in vitro ADME. The settings on record: 10 μM, 1 mg/mL microsomes, 37° C., 2 hrs.
Excerpt: as §3

Data set [5] can be described thus: In vitro metabolism in liver microsomes, metabolic pathway. It is filed as in vitro ADME, rat, dog, monkey, and human. Conditions: LC/MS/MS metabolite profiling. As for the experimental part: Phase I biotransformation of a test compound is evaluated in this assay. Samples from the metabolic stability experiment were analyzed by LC/MS/MS for metabolite profiling and identification. Structures of metabolites were elucidated based on multiple MS/MS experiments such as full scan, neutral loss scan, and product ion scan. Metabolic pathways were then postulated based on the structures of major metabolites. For compounds from the phosphinate series, N-oxidation of the terminal pyridine ring is the predominant pathway, followed by the oxidation of the dimethyl-phenyl group, where the methyl group(s) is hydroxylated, further oxidized to an aldehyde, and finally to a carboxylic acid. The elucidation of metabolic pathways is important in terms of understanding the elimination mechanism of a test compound and assisting the design of new molecules with improved DM-PK profiles.

Data set [6] in a line: Human plasma protein binding, equilibrium dialysis. The format is in vitro ADME. Conditions: pooled human plasma, 37° C., about 6 hours, 1 μM drug, read-out: Protein binding (human plasma) % Free. Here is the method: The human plasma protein binding was determined using the Equilibrium Dialysis method. Dialysis was conducted with pooled human plasma at 37° C. for approximately 6 hours at a drug concentration of 1 μM. At the end of the dialysis, buffer samples from the buffer-side of the dialysis cell were collected and analyzed by LC/MS/MS for free drug concentration. For NNRTIs, a lower protein binding is more desirable.

Data set [7] can be described thus: Metabolic stability in dog liver microsomes. It is filed as in vitro ADME. Conditions: 10 μM, 1 mg/mL microsomes, 37° C., 2 hrs.
Excerpt: as §3

The nature of data set [8]: PK and oral bioavailability in the dog. It is filed as in vivo, Beagle dogs. As for the experimental part: (§4) The pharmacokinetics of a test compound was evaluated in Sprague-Dawley rats and Beagle dogs. A typical PK study involved dosing of 2 to 3 animals via a single IV bolus injection at 1 mg/kg and another 3 animals via a single oral gavage at 5 mg/kg. Blood samples were collected at various time points over a 24-hr period. Plasma was separated and analyzed for test compound and its metabolite(s) by LC/MS/MS. PK parameters were calculated from the plasma concentration—time profile using a noncompartmental method. Oral bioavailability (F) was calculated based on dose-normalized AUC values from oral and IV administration. Higher oral bioavailability values are better.

The target in data set [9] is T2, CYP2C9 (Homo sapiens, UniProt P11712).
T2 construct: purchased Promega
T2 sequence (P11712 whole entry): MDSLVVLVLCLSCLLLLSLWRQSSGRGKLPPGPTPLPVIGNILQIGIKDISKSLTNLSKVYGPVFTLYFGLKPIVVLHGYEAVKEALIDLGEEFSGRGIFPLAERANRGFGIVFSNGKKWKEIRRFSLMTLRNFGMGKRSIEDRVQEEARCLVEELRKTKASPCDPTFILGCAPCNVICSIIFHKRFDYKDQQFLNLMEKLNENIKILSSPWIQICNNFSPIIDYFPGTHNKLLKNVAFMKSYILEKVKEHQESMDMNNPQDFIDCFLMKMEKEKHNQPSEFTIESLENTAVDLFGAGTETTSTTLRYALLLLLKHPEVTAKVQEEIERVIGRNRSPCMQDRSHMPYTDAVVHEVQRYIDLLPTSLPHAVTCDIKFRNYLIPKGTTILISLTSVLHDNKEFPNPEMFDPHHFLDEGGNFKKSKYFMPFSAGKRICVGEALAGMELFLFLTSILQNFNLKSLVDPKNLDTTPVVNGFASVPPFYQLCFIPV
The data set is described as follows: CYP450 inhibition, CYP2C9 P450-Glo assay kit. The format is in vitro ADME.
Excerpt: as §1, §2

Data set [10] is described as follows: pH dependent aqueous solubility, shake-flask method. It is filed as physicochemical. The settings on record: aqueous solution, thermodynamic from solid, saturated concentration 1 mM. As for the experimental part:
The aqueous solubility of each compound was determined by the conventional shake-flask method at a saturated concentration of 1 mM. The flask (vial) was shaken for 3 hrs at ambient temperature, and then centrifuged. The supernatant was analyzed by HPLC with UV detection for solubility determination. In general, a higher aqueous solubility is more desirable for drug candidates.

The target in data set [11] is T3, CYP2D6 (Homo sapiens, UniProt P10635).
T3 construct: purchased BD Biosciences
T3 sequence (P10635 whole entry): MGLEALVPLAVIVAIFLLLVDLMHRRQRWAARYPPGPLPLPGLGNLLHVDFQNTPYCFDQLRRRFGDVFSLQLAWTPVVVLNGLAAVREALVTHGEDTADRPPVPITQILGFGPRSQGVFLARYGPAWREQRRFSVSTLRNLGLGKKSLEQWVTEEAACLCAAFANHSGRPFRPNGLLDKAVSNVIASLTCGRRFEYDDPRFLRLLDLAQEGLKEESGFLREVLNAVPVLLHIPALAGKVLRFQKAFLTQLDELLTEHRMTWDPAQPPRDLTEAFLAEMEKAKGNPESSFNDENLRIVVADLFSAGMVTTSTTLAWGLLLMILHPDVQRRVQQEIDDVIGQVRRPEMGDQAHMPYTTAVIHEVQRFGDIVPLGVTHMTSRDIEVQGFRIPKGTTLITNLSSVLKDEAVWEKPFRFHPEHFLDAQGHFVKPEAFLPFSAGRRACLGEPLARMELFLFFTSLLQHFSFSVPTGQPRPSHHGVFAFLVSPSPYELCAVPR
Briefly: CYP450 inhibition, CYP2D6/AMMC screening kit. It is filed as in vitro ADME.
Excerpt: as §1, §2

A short description of data set [12]: PK and oral bioavailability in the rat. The format is in vivo, Sprague-Dawley rats. The settings on record: for half-life: PEG400, read-out: T½ (converted). Here is the method:
as §4

Data set [13] has as its system mutant forms such as K103N/M184V/NAMS and K103N/Y181C/M184V/NAMS. Briefly: MDRC4 and CNDO cell-based assays versus other mutant forms. Also on record: species or system HIV. The settings on record: Human immunodeficiency virus 1, read-out: EC50 values.
Setting [14] is: Beagle, plasma, IV, 1.0 mg/kg, PEG400.
Where [15] appears, read: Beagle, plasma, PO, 5.0 mg/kg, 0.5% MC.
Setting [16] is: Sprague-Dawley, plasma, IV, 1.0 mg/kg, PEG400.
The mark [17] stands for this setting: Sprague-Dawley, plasma, PO, 5.0 mg/kg, PEG400.

T1 sequence (P08684 whole entry): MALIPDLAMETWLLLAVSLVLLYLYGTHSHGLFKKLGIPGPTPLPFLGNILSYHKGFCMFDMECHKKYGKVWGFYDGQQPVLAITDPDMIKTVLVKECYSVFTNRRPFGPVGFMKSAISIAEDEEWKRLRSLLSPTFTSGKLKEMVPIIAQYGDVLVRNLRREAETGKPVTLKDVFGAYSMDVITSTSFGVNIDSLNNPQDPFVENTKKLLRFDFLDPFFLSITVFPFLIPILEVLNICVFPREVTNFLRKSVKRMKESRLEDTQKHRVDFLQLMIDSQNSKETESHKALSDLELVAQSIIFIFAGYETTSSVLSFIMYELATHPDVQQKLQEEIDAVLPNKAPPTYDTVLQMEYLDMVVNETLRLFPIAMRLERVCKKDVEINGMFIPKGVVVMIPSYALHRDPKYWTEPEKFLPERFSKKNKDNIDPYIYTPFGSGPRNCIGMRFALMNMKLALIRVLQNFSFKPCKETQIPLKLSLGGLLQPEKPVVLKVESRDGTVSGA

Regarding `COP(=O)(c1cc(C)cc(C)c1)c1c(C(=O)NCc2cc[n+]([O-])cc2)[nH]c2ccc(Cl)cc12` (stereo not drawn) [Compound D], the IC50 in data set [1] was 1070 nM; in data set [9], above 10000 nM; in data set [11], above 10000 nM. The “Metabolic stability in liver microsomes % Parent after 2 hrs, Human” value in data set [2] is 76%. For the same molecule, the “Metabolic stability in liver microsomes % Parent after 2 hrs, Monkey” value in data set [3] is 24%. For the same molecule, in [4], the “Metabolic stability in liver microsomes % Parent after 2 hrs, Rat” value is on record as 1%. Moreover, the “Metabolic pathway (in vitro)” value in data set [5] is “Hydroxylation to CH3OH— to CHO— to COOH—”. Besides, the fraction unbound at 6 h, 1 μM in [6] was found to be 0.016. Besides, in [7], the “Metabolic stability in liver microsomes % Parent after 2 hrs, Dog” value is recorded as 82%. For the same molecule, the AUC(0-inf) was 1220 ng·h/mL in [8] (setting [14]), 747 ng·h/mL in data set [8] (setting [15]), 188 ng·h/mL in data set [12] (setting [16]) and 151 ng·h/mL in data set [12] (setting [17]). Further, the AUC(0-t) in data set [8] (setting [14]) was determined as 1010 ng·h/mL; in data set [8] (setting [15]) it was 696 ng·h/mL; in data set [12] (setting [16]) it was 174 ng·h/mL; in [12] (setting [17]), 132 ng·h/mL. Also, the Cmax in data set [8] (setting [14]) stood at 430 ng/mL; in data set [8] (setting [15]), 116 ng/mL; in data set [12] (setting [16]), 166 ng/mL; in data set [12] (setting [17]), 45 ng/mL. Moreover, the half-life was 3.2 h in data set [8] (Beagle, plasma, IV, 1.0 mg/kg, PEG400, read-out: T½ (converted)); 2.6 h in data set [8] (Beagle, plasma, PO, 5.0 mg/kg, 0.5% MC, read-out: T½ (converted)); 0.9 h in [12] (Sprague-Dawley, plasma, IV, 1.0 mg/kg); 2.2 h in data set [12] (Sprague-Dawley, plasma, PO, 5.0 mg/kg). The Vd turned out to be 3.72 L/kg in data set [8] (Beagle, plasma, IV, 1.0 mg/kg, PEG400, read-out: Vss) and 6.37 L/kg in [12] (Sprague-Dawley, plasma, IV, 1.0 mg/kg, PEG400, read-out: Vss). Also, the Tmax in [8] (setting [15]) was found to be 2.7 h; in data set [12] (setting [17]), 0.5 h. Also, the AUCinf/Dose is 1220.5 in data set [8] (IV, 1.0 mg/kg, PEG400); 149.3 in data set [8] (PO, 5.0 mg/kg, 0.5% MC); 188.3 in data set [12] (IV, 1.0 mg/kg, PEG400); 30.2 in data set [12] (PO, 5.0 mg/kg, PEG400). Further, the CI worked out at 13.7 mL/min/kg in [8] (IV, 1.0 mg/kg, PEG400) and 90.297 mL/min/kg in data set [12] (IV, 1.0 mg/kg, PEG400). Further, the F in data set [8] (PO, 5.0 mg/kg, 0.5% MC, oral bioavailability) is 12.4%; in [12] (PO, 5.0 mg/kg, PEG400, oral bioavailability) it was 16.0%. For the same molecule, the solubility at 3 h in data set [10] (pH 1, simulated gastric fluid, pH1, ambient temperature, read-out: Aqueous solubility pH1) is 52 µM (≈ 25.2 µg/mL); in [10] (pH 3, aqueous buffer, pH3, ambient temperature, read-out: Aqueous solubility pH3) it was 74.2 µM (≈ 35.9 µg/mL); in data set [10] (pH 7, aqueous buffer, pH7, ambient temperature, read-out: Aqueous solubility pH7) it was 50.6 µM (≈ 24.5 µg/mL); in data set [10] (pH 9, aqueous buffer, pH9, ambient temperature, read-out: Aqueous solubility pH9) it was 66.8 µM (≈ 32.3 µg/mL).

Turning to `CCOC(=O)c1c(P(=O)(OCC)c2ccccc2)c2cc(Cl)ccc2n1S(=O)(=O)c1ccccc1` (stereo not drawn) [Example 3, Ethyl 5-chloro-3-[ethoxy(phenyl)phosphoryl]-1-(phenylsulfonyl)-1H-indole-2-carboxylate], the EC50 in data set [13] fell in the range of 1.3 to 447 nM.

One may read the IC50 as the concentration that gives 50% inhibition. What is called AUC(0-inf) is total exposure, with the tail of the curve extrapolated. The term AUC(0-t) denotes exposure summed from dosing to a finite time, without extrapolation to infinity. A word on the Cmax: it is the highest concentration seen after dosing. For orientation: Tmax means the time from dosing to the highest level. What is called solubility is how much of the substance goes into solution per volume. The term EC50 denotes the concentration at which the effect is half-maximal.
